Experimental findings from US9056874B2, “Complement pathway modulators and uses thereof” (NOVARTIS AG, priority 2012, dated 2015) are described below.

For orientation: IC50 means the midpoint of a concentration-inhibition curve.

The structures appear in SMILES notation.

For this experiment, the target named is factor B (Homo sapiens, UniProt P00751). Put plainly: factor B inhibition assay of Biological Example 1. It counts as biochemical. Also on record: CVF-Bb complex prepared from purified cobra venom factor (1 μM), recombinant human complement factor B; made in house; host or cells: drosophila cells (factor B); E. coli (factor D used to form the complex). The note with it: IC50 (nM), assay of Biological Example 1 (Table 1).
Sequence of factor B (P00751 260-764 limits assumed): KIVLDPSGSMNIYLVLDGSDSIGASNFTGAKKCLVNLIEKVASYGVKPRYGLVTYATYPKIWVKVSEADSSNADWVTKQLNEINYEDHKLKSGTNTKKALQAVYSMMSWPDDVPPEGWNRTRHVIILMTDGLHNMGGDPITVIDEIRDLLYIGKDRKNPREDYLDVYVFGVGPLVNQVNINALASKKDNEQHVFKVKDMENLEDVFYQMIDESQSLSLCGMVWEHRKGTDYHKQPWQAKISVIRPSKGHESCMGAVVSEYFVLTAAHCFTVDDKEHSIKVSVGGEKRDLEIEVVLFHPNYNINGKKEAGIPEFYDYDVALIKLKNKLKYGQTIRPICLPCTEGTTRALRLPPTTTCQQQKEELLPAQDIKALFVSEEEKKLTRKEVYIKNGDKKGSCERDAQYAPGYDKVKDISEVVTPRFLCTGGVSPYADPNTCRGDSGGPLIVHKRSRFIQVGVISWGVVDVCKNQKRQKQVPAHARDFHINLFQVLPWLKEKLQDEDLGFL
Sequence of factor B (Q91132 23-649 partner limits assumed): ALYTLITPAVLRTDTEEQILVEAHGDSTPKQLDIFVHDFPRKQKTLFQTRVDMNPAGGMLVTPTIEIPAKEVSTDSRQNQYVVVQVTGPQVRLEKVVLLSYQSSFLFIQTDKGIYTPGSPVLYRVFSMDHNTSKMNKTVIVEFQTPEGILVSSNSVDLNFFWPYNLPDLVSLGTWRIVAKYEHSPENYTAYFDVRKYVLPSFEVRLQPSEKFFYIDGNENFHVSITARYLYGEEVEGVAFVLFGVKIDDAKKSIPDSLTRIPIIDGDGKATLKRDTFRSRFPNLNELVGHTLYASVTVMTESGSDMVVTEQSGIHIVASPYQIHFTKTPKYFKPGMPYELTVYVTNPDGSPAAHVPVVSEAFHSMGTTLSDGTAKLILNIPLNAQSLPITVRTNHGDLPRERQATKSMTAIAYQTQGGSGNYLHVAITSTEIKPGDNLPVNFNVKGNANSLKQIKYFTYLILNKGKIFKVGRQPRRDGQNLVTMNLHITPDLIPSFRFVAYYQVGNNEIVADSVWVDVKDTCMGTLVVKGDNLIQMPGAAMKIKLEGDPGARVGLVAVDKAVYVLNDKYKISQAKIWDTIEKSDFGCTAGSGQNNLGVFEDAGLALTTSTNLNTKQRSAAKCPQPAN
Sequence of factor B (Q91132 733-984 partner limits assumed): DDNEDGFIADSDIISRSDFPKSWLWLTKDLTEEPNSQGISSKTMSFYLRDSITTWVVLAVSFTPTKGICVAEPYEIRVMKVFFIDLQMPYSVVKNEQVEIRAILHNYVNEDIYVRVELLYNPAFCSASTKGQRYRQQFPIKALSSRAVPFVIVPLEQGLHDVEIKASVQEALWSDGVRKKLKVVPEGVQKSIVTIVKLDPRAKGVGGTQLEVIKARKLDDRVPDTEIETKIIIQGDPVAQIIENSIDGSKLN
Sequence of factor B (Q91132 1264-1642 partner limits assumed): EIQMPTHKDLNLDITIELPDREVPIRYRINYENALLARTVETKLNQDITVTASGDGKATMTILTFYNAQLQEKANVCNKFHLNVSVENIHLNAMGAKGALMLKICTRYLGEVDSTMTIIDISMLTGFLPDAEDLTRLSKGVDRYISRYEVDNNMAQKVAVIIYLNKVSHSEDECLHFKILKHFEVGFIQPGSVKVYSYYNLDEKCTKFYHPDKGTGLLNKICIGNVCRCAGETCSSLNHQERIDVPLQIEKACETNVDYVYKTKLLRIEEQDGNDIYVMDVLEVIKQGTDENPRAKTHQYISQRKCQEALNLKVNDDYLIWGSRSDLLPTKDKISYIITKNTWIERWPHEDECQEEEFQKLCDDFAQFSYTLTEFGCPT

On to `CNC(C)(c1nc2cc(C#N)ccc2[nH]1)c1c(OC)cc(C)c2[nH]ccc12` (single isomer, unassigned; (-)) [42-D b) (−), (−)-2-(1-(5-methoxy-7-methyl-1H-indol-4-yl)-1-(methylamino)ethyl)-1H-benzo[d]imidazole-5-carbonitrile], for which the half-maximal inhibitory concentration (IC50) worked out at 5 nM.
`Cc1cc(C)c2[nH]ccc2c1C(O)c1nc2cc(C#N)ccc2[nH]1` (single isomer, unassigned; (-)) [64-C b) (−), (−)-2-((5,7-dimethyl-1H-indol-4-yl)(hydroxy)methyl)benzo[d]imidazole-5-carbonitrile]: the half-inhibitory concentration (IC50) came out at 60 nM.
On to `Cc1cc(CO)c(C(O)c2nc3cc(C#N)ccc3[nH]2)c2cc[nH]c12` (single isomer, unassigned; (-)) [65-D b) (−), (−)-2-(hydroxy(5-(hydroxymethyl)-7-methyl-1H-indol-4-yl)methyl)-1H-benzo[d]imidazole-5-carbonitrile], for which the IC50 came to 270 nM.
In the case of `CCOCc1cc(C)c2[nH]ccc2c1C(O)c1nc2cc(C#N)ccc2[nH]1` (single isomer, unassigned; (-)) [66-D b) (−), (−)-2-((5-(ethoxymethyl)-7-methyl-1H-indol-4-yl)(hydroxy)methyl)-1H-benzo[d]imidazole-5-carbonitrile], the half-inhibitory concentration (IC50) was found to be 5110 nM.
Take `CCc1cc(C)c2[nH]ccc2c1C(O)c1nc2cc(C#N)ccc2[nH]1` (single isomer, unassigned; (-)) [67-A b) (−), (−)-2-((5-ethyl-7-methyl-1H-indol-4-yl)(hydroxy)methyl)-1H-benzo[d]imidazole-5-carbonitrile]: the IC50 was found to be 160 nM.
On to `Cc1cc(CC(C)C)c(C(O)c2nc3cc(C#N)ccc3[nH]2)c2cc[nH]c12` (single isomer, unassigned; (-)) [67-C b) (−), (−)-2-(hydroxy(5-(isobutyl)-7-methyl-1H-indol-4-yl)methyl)-1H-benzo[d]imidazole-5-carbonitrile], for which the IC50 stood at 6750 nM.
Turning to `Cc1cc(C(C)C)c(C(O)c2nc3cc(C#N)ccc3[nH]2)c2cc[nH]c12` (single isomer, unassigned; (-)) [67-D b) (−), (−)-2-(hydroxy(5-isopropyl-7-methyl-1H-indol-4-yl)methyl)-1H-benzo[d]imidazole-5-carbonitrile], the IC50 came out at 60 nM.
To `Cc1cc(Cl)c(C(O)c2nc3cc(C#N)ccc3[nH]2)c2cc[nH]c12` (single isomer, unassigned; (-)) [67-E b) (−), (−)-2-((5-chloro-7-methyl-1H-indol-4-yl)(hydroxy)methyl)-1H-benzo[d]imidazole-5-carbonitrile] belongs 1180 nM; to `Cc1cc(C)c2[nH]ccc2c1C(O)c1nc2c(C)c(C#N)ccc2[nH]1` (single isomer, unassigned; (-)) [67-G b) (−), (−)-2-((5,7-dimethyl-1H-indol-4-yl)(hydroxy)methyl)-4-methyl-1H-benzo[d]imidazole-5-carbonitrile], 570 nM.
The same measure for `CCc1cc(C)c2[nH]ccc2c1C(OC)c1nc2cc(C#N)ccc2[nH]1` (single isomer, unassigned; (-)) [70-D b) (−), (−)-2-((5-ethyl-7-methyl-1H-indol-4-yl)(methoxy)methyl)-1H-benzo[d]imidazole-5-carbonitrile]: 480 nM; for `COC(c1nc2cc(C#N)ccc2[nH]1)c1c(CC(C)C)cc(C)c2[nH]ccc12` (single isomer, unassigned; (-)) [71 b) (−), (−)-2-((5-isobutyl-7-methyl-1H-indol-4-yl)(methoxy)methyl)-1H-benzo[d]imidazole-5-carbonitrile]: 4590 nM.
For `Cc1cc(C)c2[nH]ccc2c1C(C)(O)c1nc2cc(C#N)ccc2[nH]1` (single isomer, unassigned; (-)) [76-B b) (−), (−)-2-(1-(5,7-Dimethyl-1H-indol-4-yl)-1-hydroxyethyl)-1H-benzo[d]imidazole-5-carbonitrile], the half-maximal inhibitory concentration (IC50) turned out to be 190 nM.
Take `CCc1cc(C)c2[nH]ccc2c1C(C)(O)c1nc2cc(C#N)ccc2[nH]1` (single isomer, unassigned; (-)) [77-C b) (−), (−)-2-(1-(5-ethyl-7-methyl-1H-indol-4-yl)-1-hydroxyethyl)-1H-benzo[d]imidazole-5-carbonitrile]: the half-inhibitory concentration (IC50) is 20 nM.
The same measure for `Cc1cc(C(C)C)c(C(C)(O)c2nc3cc(C#N)ccc3[nH]2)c2cc[nH]c12` (single isomer, unassigned; (-)) [79-B b) (−), (−)-2-(1-hydroxy-1-(5-isopropyl-7-methyl-1H-indol-4-yl)ethyl)-1H-benzo[d]imidazole-5-carbonitrile]: 260 nM; for `Cc1cc(C2CC2)c(C(C)(O)c2nc3cc(C#N)ccc3[nH]2)c2cc[nH]c12` (single isomer, unassigned; (-)) [79-C b) (−), (−)-2-(1-(5-cyclopropyl-7-methyl-1H-indol-4-yl)-1-hydroxyethyl)-1H-benzo[d]imidazole-5-carbonitrile]: 6 nM.
For `Cc1cc(CC(C)C)c(C(C)(O)c2nc3cc(C#N)ccc3[nH]2)c2cc[nH]c12` (single isomer, unassigned; (-)) [79-D b) (−), (−)-2-(1-hydroxy-1-(5-isobutyl-7-methyl-1H-indol-4-yl)ethyl)-1H-benzo[d]imidazole-5-carbonitrile], the half-inhibitory concentration (IC50) turned out to be 310 nM.
On to `Cc1cc(Cl)c(C(C)(O)c2nc3cc(C#N)ccc3[nH]2)c2cc[nH]c12` (single isomer, unassigned; (-)) [79-E b) (−), (−)-2-(1-(5-chloro-7-methyl-1H-indol-4-yl)-1-hydroxyethyl)-1H-benzo[d]imidazole-5-carbonitrile], for which the IC50 was 350 nM.
The same measure for `CCc1cc(C)c2[nH]ccc2c1C(O)(c1nc2cc(C#N)ccc2[nH]1)C(F)(F)F` (single isomer, unassigned; (-)) [80-C b) (−), (−)-2-(1-(5-ethyl-7-methyl-1H-indol-4-yl)-2,2,2-trifluoro-1-hydroxyethyl)-1H-benzo[d]imidazole-5-carbonitrile]: 10 nM.
Consider `Cc1cc(C)c2[nH]ccc2c1C(O)(c1nc2cc(C#N)ccc2[nH]1)C(F)(F)F` (single isomer, unassigned; (-)) [80-D b) (−), (−)-2-(1-(5,7-dimethyl-1H-indol-4-yl)-2,2,2-trifluoro-1-hydroxyethyl)-1H-benzo[d]imidazole-5-carbonitrile], for which the IC50 came out at 70 nM.
For `Cc1cc(C2CC2)c(C(O)(c2nc3cc(C#N)ccc3[nH]2)C(F)(F)F)c2cc[nH]c12` (single isomer, unassigned; (-)) [80-E b) (−), (−)-2-(1-(5-cyclopropyl-7-methyl-1H-indol-4-yl)-2,2,2-trifluoro-1-hydroxyethyl)-1H-benzo[d]imidazole-5-carbonitrile], the IC50 stood at 10 nM.
The same measure for `Cc1cc(C(C)C)c(C(O)(c2nc3cc(C#N)ccc3[nH]2)C(F)(F)F)c2cc[nH]c12` (single isomer, unassigned; (-)) [80-F b) (−), (−)-2-(2,2,2-trifluoro-1-hydroxy-1-(5-isopropyl-7-methyl-1H-indol-4-yl)ethyl)-1H-benzo[d]imidazole-5-carbonitrile]: 20 nM; for `COC(C)(c1nc2cc(C#N)ccc2[nH]1)c1c(C)cc(C)c2[nH]ccc12` (single isomer, unassigned; (-)) [84-B b) (−), (−)-2-(1-(5,7-dimethyl-1H-indol-4-yl)-1-methoxyethyl)-1H-benzo[d]imidazole-5-carbonitrile]: 50 nM.
For the compound `CCc1cc(C)c2[nH]ccc2c1C(C)(OC)c1nc2cc(C#N)ccc2[nH]1` (single isomer, unassigned; (-)) [84-C b) (−), (−)-2-(1-(5-ethyl-7-methyl-1H-indol-4-yl)-1-methoxyethyl)-1H-benzo[d]imidazole-5-carbonitrile], the IC50 amounted to 10 nM.
On to `CCc1cc(C)c2[nH]ccc2c1C(OC)(c1nc2cc(C#N)ccc2[nH]1)C(F)(F)F` (single isomer, unassigned; (-)) [84-D b) (−), (−)-2-(1-(5-ethyl-7-methyl-1H-indol-4-yl)-2,2,2-trifluoro-1-methoxyethyl)-1H-benzo[d]imidazole-5-carbonitrile], for which the concentration for half-maximal inhibition (IC50) worked out at 8 nM.
Turning to `COC(C)(c1nc2cc(C#N)ccc2[nH]1)c1c(CC(C)C)cc(C)c2[nH]ccc12` (single isomer, unassigned; (-)) [84-E b) (−), (−)-2-(1-(5-isobutyl-7-methyl-1H-indol-4-yl)-1-methoxyethyl)-1H-benzo[d]imidazole-5-carbonitrile], the concentration for half-maximal inhibition (IC50) is 260 nM.
The same measure for `Cc1cc(C)c2[nH]ccc2c1C(N)c1nc2ccc(C#N)cc2[nH]1` (single isomer, unassigned; (-)) [95-B b) (−), (−)-2-(amino(5,7-dimethyl-1H-indol-4-yl)methyl)benzo[d]imidazole-5-carbonitrile]: 480 nM; for `CCc1cc(C)c2[nH]ccc2c1C(N)c1nc2cc(C#N)ccc2[nH]1` (single isomer, unassigned; (-)) [96-C b) (−), (−)-2-(amino(5-ethyl-7-methyl-1H-indol-4-yl)methyl)-1H-benzo[d]imidazole-5-carbonitrile]: 70 nM; for `CCc1cc(C)c2[nH]ccc2c1C(C)(N)c1nc2cc(C#N)ccc2[nH]1` (single isomer, unassigned; (-)) [102-C b) (−), (−)-2-(1-amino-1-(5-ethyl-7-methyl-1H-indol-4-yl)ethyl)-1H-benzo[d]imidazole-5-carbonitrile]: 10 nM.
The same measure for `Cc1cc(C2CC2)c(C(C)(N)c2nc3cc(C#N)ccc3[nH]2)c2cc[nH]c12` (single isomer, unassigned; (-)) [102-D b) (−), (−)-2-(1-amino-1-(5-cyclopropyl-7-methyl-1H-indol-4-yl)ethyl)-1H-benzo[d]imidazole-5-carbonitrile]: 8 nM; for `Cc1cc(Br)c(C(N)(c2nc3cc(C#N)ccc3[nH]2)C(F)(F)F)c2cc[nH]c12` (single isomer, unassigned; (-)) [105-B b) (−), (−)-2-(1-amino-1-(5-bromo-7-methyl-1H-indol-4-yl)-2,2,2-trifluoroethyl)-1H-benzo[d]imidazole-5-carbonitrile]: 20 nM.
